Measurements published in patent US20260207569A1, “LPA1 ANTAGONISTS FOR TREATING INTERSTITIAL LUNG DISEASE” (Bristol-Myers Squibb Company, priority 2022, published 2026).

Assay: Phase 2 PPF cohort safety: adverse events, prespecified asymptomatic or symptomatic blood pressure reduction criteria, dose reductions
Type: in vivo, human
Details: for Patients with asymptomatic blood pressure reduction, (%) / Patients with asymptomatic blood pressure reduction, no. / Patients with symptomatic blood pressure reduction, (%) / Patients with symptomatic blood pressure reduction, no.: prespecified criteria
Experimental: A total of 123 participants with PPF were randomized. Participants (age ≥21 years) were randomized (1:1:1) to receive 30 mg or 60 mg Compound A or PBO twice daily for 26 weeks. […] Immunosuppressive medications (mycophenolate mofetil, mycophenolic acid, azathioprine and/or tacrolimus) were permitted only if dosing is stable for ≥6 months prior to screening. If receiving antifibrotic agents pirfenidone or nintedanib, patients had to receive a stable dosage for ≥3 months prior to screening and during the screening period; if not receiving pirfenidone or nintedanib, patients had to be naive to both drugs or not have received either 4 weeks prior to Day 1. A total of 47 (38.2%) subjects were receiving antifibrotic treatment (with or without immunosuppression therapy). Of those subjects, 34 were being treated with nintedanib and 13 with pirfenidone. Participants were stratified by usual interstitial pneumonia (UIP) pattern (presence versus absence) and background therapy (antifibrotics +/−ILD-targeted immunosuppression versus ILD-targeted immunosuppression alone versus none). UIP pattern was present in 52% of subjects and unclassifiable ILD was he most common disease categorization.
Patient is experiencing any of the following, confirmed by retest within 15 minutes: • Seated systolic blood pressure <85 mmHg • Seated diastolic blood pressure <55 mmHg • Orthostatic hypotension
Patient is experiencing symptoms that, in the investigator's opinion, could be associated with a reduction in blood pressure and is also experiencing at least one of the following, confirmed by retest within 15 minutes: • Seated systolic blood pressure <100 mmHg or seated diastolic blood pressure <60 mmHg • Decrease of seated systolic blood pressure of ≥20 mmHg from the previous visit or decrease of seated diastolic blood pressure of ≥10 mmHg from the previous visit • Orthostatic hypotension • Orthostatic tachycardia

[1] = PPF cohort, 30-mg Compound A (n = 40)
[2] = PPF cohort, 60-mg Compound A (n = 42)

CCCN(C)C(=O)OCc1c(-c2ccc(O[C@H]3CCC[C@H](C(=O)O)C3)c(C)n2)nnn1C [Compound A, (1S,3S)-3-((2-methyl-6-(1-methyl-5-(((methyl(propyl)carbamoyl)-oxy)methyl)-1H-1,2,3-triazol-4-yl)pyridin-3-yl)oxy)cyclohexane-1-carboxylic acid]
Day-1 blood pressure reduction (PPF cohort): dose dependent day-1 blood pressure reduction
Marked laboratory abnormalities (PPF cohort): No notable imbalances in marked laboratory abnormalities among treatment groups
Prespecified blood pressure reduction criteria across arms (PPF cohort): increased in a dose-dependent manner
Patients with dose reductions, (%) [1]: (15.0) %
Patients with dose reductions, no. [1]: 6 no.
Patients with orthostatic hypotension (within asymptomatic blood pressure reduction), (%) [1]: (15.0) %
Patients with orthostatic hypotension (within asymptomatic blood pressure reduction), no. [1]: 6 no.
Patients with orthostatic hypotension (within symptomatic blood pressure reduction), (%) [1]: (2.5) %
Patients with orthostatic hypotension (within symptomatic blood pressure reduction), no. [1]: 1 no.
Patients with asymptomatic blood pressure reduction, (%) [1]: (22.5) %
Patients with asymptomatic blood pressure reduction, no. [1]: 9 no.
Patients with symptomatic blood pressure reduction, (%) [1]: (5.0) %
Patients with symptomatic blood pressure reduction, no. [1]: 2 no.
Patients with dose reductions, (%) [2]: (11.9) %
Patients with dose reductions, no. [2]: 5 no.
Patients with orthostatic hypotension (within asymptomatic blood pressure reduction), (%) [2]: (26.2) %
Patients with orthostatic hypotension (within asymptomatic blood pressure reduction), no. [2]: 11 no.
Patients with orthostatic hypotension (within symptomatic blood pressure reduction), (%) [2]: (9.5) %
Patients with orthostatic hypotension (within symptomatic blood pressure reduction), no. [2]: 4 no.
Patients with asymptomatic blood pressure reduction, (%) [2]: (31.0) %
Patients with asymptomatic blood pressure reduction, no. [2]: 13 no.
Patients with symptomatic blood pressure reduction, (%) [2]: (14.3) %
Patients with symptomatic blood pressure reduction, no. [2]: 6 no.
Low BP thresholds (“events”) (PPF, 30 mg BID): 30%
COVID-19, % (PPF, 30 mg BID (n = 40)): (15.0) %
COVID-19, no. (PPF, 30 mg BID (n = 40)): 6
Cough, % (PPF, 30 mg BID (n = 40)): (7.5) %
Cough, no. (PPF, 30 mg BID (n = 40)): 3
Deaths due to TEAEs, no. (PPF, 30 mg BID (n = 40)): 0
Diarrhea, % (PPF, 30 mg BID (n = 40)): (15.0) %
Diarrhea, no. (PPF, 30 mg BID (n = 40)): 6
Discontinuations due to TEAEs, % (PPF, 30 mg BID (n = 40)): (2.5) %
Discontinuations due to TEAEs, no. (PPF, 30 mg BID (n = 40)): 1
Dizziness, no. (PPF, 30 mg BID (n = 40)): 0
Dyspnea, % (PPF, 30 mg BID (n = 40)): (5.0) %
Dyspnea, no. (PPF, 30 mg BID (n = 40)): 2
Hypertension, no. (PPF, 30 mg BID (n = 40)): 0
Hypotension, % (PPF, 30 mg BID (n = 40)): (10.0) %
Hypotension, no. (PPF, 30 mg BID (n = 40)): 4
Nausea, % (PPF, 30 mg BID (n = 40)): (10.0) %
Nausea, no. (PPF, 30 mg BID (n = 40)): 4
Orthostatic hypotension, % (PPF, 30 mg BID (n = 40)): (5.0) %
Orthostatic hypotension, no. (PPF, 30 mg BID (n = 40)): 2
Patients with ≥1 TEAE related to study drug, no. (PPF, 30 mg BID (n = 40)): 7
Patients with ≥1 TEAE, no. (PPF, 30 mg BID (n = 40)): 33
Patients with ≥1 TESAE, no. (PPF, 30 mg BID (n = 40)): 4
Rash, % (PPF, 30 mg BID (n = 40)): (7.5) %
Rash, no. (PPF, 30 mg BID (n = 40)): 3
Vomiting, % (PPF, 30 mg BID (n = 40)): (7.5) %
Vomiting, no. (PPF, 30 mg BID (n = 40)): 3
Orthostatic hypotension (asymptomatic and symptomatic) vs other groups (PPF, 60 mg BID): higher in the 60 mg group than for other groups
COVID-19, % (PPF, 60 mg BID (n = 42)): (14.3) %
COVID-19, no. (PPF, 60 mg BID (n = 42)): 6
Cough, % (PPF, 60 mg BID (n = 42)): (11.9) %
Cough, no. (PPF, 60 mg BID (n = 42)): 5
Deaths due to TEAEs, no. (PPF, 60 mg BID (n = 42)): 0
Diarrhea, % (PPF, 60 mg BID (n = 42)): (7.1) %
Diarrhea, no. (PPF, 60 mg BID (n = 42)): 3
Discontinuations due to TEAEs, no. (PPF, 60 mg BID (n = 42)): 0
Dizziness, % (PPF, 60 mg BID (n = 42)): (9.5) %
Dizziness, no. (PPF, 60 mg BID (n = 42)): 4
Dyspnea, no. (PPF, 60 mg BID (n = 42)): 0
Hypertension, % (PPF, 60 mg BID (n = 42)): (2.4) %
Hypertension, no. (PPF, 60 mg BID (n = 42)): 1
Hypotension, % (PPF, 60 mg BID (n = 42)): (7.1) %
Hypotension, no. (PPF, 60 mg BID (n = 42)): 3
Nausea, % (PPF, 60 mg BID (n = 42)): (2.4) %
Nausea, no. (PPF, 60 mg BID (n = 42)): 1
Orthostatic hypotension, % (PPF, 60 mg BID (n = 42)): (9.5) %
Orthostatic hypotension, no. (PPF, 60 mg BID (n = 42)): 4
Patients with ≥1 TEAE related to study drug, no. (PPF, 60 mg BID (n = 42)): 11
Patients with ≥1 TEAE, no. (PPF, 60 mg BID (n = 42)): 28
Patients with ≥1 TESAE, no. (PPF, 60 mg BID (n = 42)): 5
Rash, no. (PPF, 60 mg BID (n = 42)): 0
Vomiting, no. (PPF, 60 mg BID (n = 42)): 0
Adverse event profile other than low blood pressure (PPF, 60 mg BID versus placebo): generally in favor of the 60 mg group versus placebo
